Laboratory results from patent US12187713B2, “Immunomodulators, compositions and methods thereof” (Betta Pharmaceuticals Co., Ltd, priority 2019, dated 2025).
pIC50: −log10 of the molar value.

target: PD-1/PD-L1 (Homo sapiens (Human), UniProt Q9NZQ7); assay: PD-1/PD-L1 Binding Assay (Alphascreen); conditions: numeric values
Description: PD-1/PD-L1 Binding Assay (Alphascreen)
The assays were conducted in a standard black 384-well polystyrene plate with a final volume of 20 μL. Inhibitors were first serially diluted in DMSO and then added to the plate wells before the addition of other reaction components. The final concentration of DMSO in the assay was […]. Add 100 nL/well of compound to the 384 reaction plate (6008280, PerkinElmer) with Echo and centrifuge at 1000 rpm for 1 minute. Add 5 μL/well 4×PD-L1 solutions to the 384 reaction plate, centrifuge at 1000 rpm for 1 minute, and add 5 μL/well 4×PD-1 solutions, centrifuge at 1000 rpm for 1 minute, and incubate at 25° C. for 15 minutes. The concentrations of the compounds were 300, 100, 33.33, 11.11, 3.70, 1.23, 0.41, 0.137, 0.046, 0.015, 0 nM, respectively. Add 10 μL/well 2× Anti-6×His AlphaLISA Acceptor beads and Streptavidin Donor beads solution (PerkinElmer-AL356F) to the above 384 reaction plate, centrifuge at 1000 rpm for 1 minute, and incubate at 25° C. in the dark for 120 minutes. Read the AlphaLISA signal value using the Envision Reader. IC50 determination was performed by fitting the curve of percent control activity versus the log of the inhibitor concentration using the GraphPad Prism 8.0 software.

PD-1/PD-L1, sequence (Q9NZQ7 19-238): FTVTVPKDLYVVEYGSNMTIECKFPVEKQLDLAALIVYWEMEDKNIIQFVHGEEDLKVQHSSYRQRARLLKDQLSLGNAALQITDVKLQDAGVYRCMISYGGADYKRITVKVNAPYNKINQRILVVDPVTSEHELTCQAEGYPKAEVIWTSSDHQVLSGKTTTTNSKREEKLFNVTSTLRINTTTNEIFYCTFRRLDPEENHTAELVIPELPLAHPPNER

Compound | pIC50
Cc1c(-c2nc3cc(CN4CC5(C4)CS(=O)(=O)C5)c(OC(F)F)cc3o2)cccc1-c1cccc(-c2nc3cc(CN4CCC[C@H]4C(=O)O)c(OC(F)F)cc3o2)c1C [Example 54, ((6-(difluoromethoxy)-2-(3′-(6-(difluoromethoxy)-5-((2,2-dioxido-2-thia-6-azaspiro [3.3]heptan-6-yl)methyl)benzo[d]oxazol-2-yl)-2,2′-dimethyl-[1,1′-biphenyl]-3-yl)benzo[d]oxazol-5-yl)methyl)-L-proline] | 8.20
Cc1c(-c2nc3cc(CN4CC5COCC5C4)c(OC(F)F)cc3o2)cccc1-c1cccc(-c2nc3cc(CN4CCC[C@H]4C(=O)O)c(OC(F)F)cc3o2)c1C (stereo partly drawn) [Example 55, ((6-(difluoromethoxy)-2-(3′-(6-(difluoromethoxy)-5-((tetrahydro-1H-furo[3,4-c]pyrrol-5(3H)-yl)methyl)benzo[d]oxazol-2-yl)-2,2′-dimethyl-[1,1′-biphenyl]-3-yl)benzo[d]oxazol-5-yl)methyl)-L-proline] | 9.24
Cc1c(-c2nc3cc(CNCCCNCCO)c(OC(F)F)cc3o2)cccc1-c1cccc(-c2nc3cc(CN4CCC[C@H]4C(=O)O)c(OC(F)F)cc3o2)c1C [Example 58, ((6-(difluoromethoxy)-2-(3′-(6-(difluoromethoxy)-5-(((3-((2-hydroxyethyl)amino)propyl)amino)methyl)benzo[d]oxazol-2-yl)-2,2′-dimethyl-[1,1′-biphenyl]-3-yl)benzo[d]oxazol-5-yl)methyl)-L-proline] | 9.10
Cc1c(-c2nc3cc(CN(C)CCN(C)C)c(OC(F)F)cc3o2)cccc1-c1cccc(-c2nc3cc(CN4CCC[C@H]4C(=O)O)c(OC(F)F)cc3o2)c1C [Example 59, ((6-(difluoromethoxy)-2-(3′-(6-(difluoromethoxy)-5-(((2-(dimethylamino)ethyl)(methyl)amino)methyl)benzo [d]oxazol-2-yl)-2,2′-dimethyl-[1,1′-biphenyl]-3-yl)benzo[d]oxazol-5-yl)methyl)-L-proline] | 8.60
CCN(CC)C1CN(Cc2cc3nc(-c4cccc(-c5cccc(-c6nc7cc(CN8CCC[C@H]8C(=O)O)c(OC(F)F)cc7o6)c5C)c4C)oc3cc2OC(F)F)C1 [Example 68, ((2-(3′-(5-((3-(diethylamino)azetidin-1-yl)methyl)-6-(difluoromethoxy)benzo[d]oxazol-2-yl)-2,2′-dimethyl-[1,1′-biphenyl]-3-yl)-6-(difluoromethoxy)benzo[d]oxazol-5-yl)methyl)-L-proline] | 8.62
Cc1c(-c2nc3cc(CN4CC(C(C)(C)O)C4)c(OC(F)F)cc3o2)cccc1-c1cccc(-c2nc3cc(CN4CCC[C@H]4C(=O)O)c(OC(F)F)cc3o2)c1C [Example 69, ((6-(difluoromethoxy)-2-(3′-(6-(difluoromethoxy)-5-((3-(2-hydroxypropan-2-yl)azetidin-1-yl)methyl)benzo[d]oxazol-2-yl)-2,2′-dimethyl-[1,1′-biphenyl]-3-yl)benzo[d]oxazol-5-yl)methyl)-L-proline] | 9.31
Cc1c(-c2nc3cc(CN4CC5CC4C5)c(OC(F)F)cc3o2)cccc1-c1cccc(-c2nc3cc(CN4CCC[C@H]4C(=O)O)c(OC(F)F)cc3o2)c1C [Example 71, ((2-(3′-(5-((2-azabicyclo[2.1.1]hexan-2-yl)methyl)-6-(difluoromethoxy)benzo[d]oxazol-2-yl)-2,2′-dimethyl-[1,1′-biphenyl]-3-yl)-6-(difluoromethoxy)benzo[d]oxazol-5-yl)methyl)-L-proline] | 9.43

same assay, conditions: range symbols

Compound | pIC50
Cc1c(-c2nc3cc(CN4CC5(COC5)C4)c(OC(F)F)cc3o2)cccc1-c1cccc(-c2nc3cc(CN4CCC[C@H]4C(=O)O)c(OC(F)F)cc3o2)c1C [Example 47, ((2-(3′-(5-((2-oxa-6-azaspiro[3.3]heptan-6-yl)methyl)-6-(difluoromethoxy)benzo[d]oxazol-2-yl)-2,2′-dimethyl-[1,1′-biphenyl]-3-yl)-6-(difluoromethoxy)benzo[d]oxazol-5-yl)methyl)-L-proline] | 8.30 to 10.00
Cc1c(-c2nc3cc(CN4CC5(CCC5)C4)c(OC(F)F)cc3o2)cccc1-c1cccc(-c2nc3cc(CN4CCC[C@H]4C(=O)O)c(OC(F)F)cc3o2)c1C [Example 48, ((2-(3′-(5-((2-azaspiro [3.3]heptan-2-yl)methyl)-6-(difluoromethoxy)benzo[d]oxazol-2-yl)-2,2′-dimethyl-[1,1′-biphenyl]-3-yl)-6-(difluoromethoxy)benzo[d]oxazol-5-yl)methyl)-L-proline] | 8.30 to 10.00
Cc1c(-c2nc3cc(CN4CC5CCCC5C4)c(OC(F)F)cc3o2)cccc1-c1cccc(-c2nc3cc(CN4CCC[C@H]4C(=O)O)c(OC(F)F)cc3o2)c1C (stereo partly drawn) [Example 49, ((6-(difluoromethoxy)-2-(3′-(6-(difluoromethoxy)-5-((hexahydrocyclopenta [c]pyrrol-2(1H)-yl)methyl)benzo[d]oxazol-2-yl)-2,2′-dimethyl-[1,1′-biphenyl]-3-yl)benzo[d]oxazol-5-yl)methyl)-L-proline] | 8.30 to 10.00
Cc1c(-c2nc3cc(CN4CC5CNCC5C4)c(OC(F)F)cc3o2)cccc1-c1cccc(-c2nc3cc(CN4CCC[C@H]4C(=O)O)c(OC(F)F)cc3o2)c1C (stereo partly drawn) [Example 50, ((6-(difluoromethoxy)-2-(3′-(6-(difluoromethoxy)-5-((hexahydropyrrolo [3,4-c]pyrrol-2(1H)-yl)methyl)benzo[d]oxazol-2-yl)-2,2′-dimethyl-[1,1′-biphenyl]-3-yl)benzo[d]oxazol-5-yl)methyl)-L-proline] | 8.30 to 10.00
Cc1c(-c2nc3cc(CN4CC5(CCNCC5)C4)c(OC(F)F)cc3o2)cccc1-c1cccc(-c2nc3cc(CN4CCC[C@H]4C(=O)O)c(OC(F)F)cc3o2)c1C [Example 51, ((2-(3′-(5-((2,7-diazaspiro[3.5]nonan-2-yl)methyl)-6-(difluoromethoxy)benzo[d]oxazol-2-yl)-2,2′-dimethyl-[1,1′-biphenyl]-3-yl)-6-(difluoromethoxy)benzo[d]oxazol-5-yl)methyl)-L-proline] | 8.30 to 10.00
CCCNCCCNCc1cc2nc(-c3cccc(-c4cccc(-c5nc6cc(CN7CCC[C@H]7C(=O)O)c(OC(F)F)cc6o5)c4C)c3C)oc2cc1OC(F)F [Example 52, ((6-(difluoromethoxy)-2-(3′-(6-(difluoromethoxy)-5-(((3-(propylamino)propyl)amino)methyl)benzo [d]oxazol-2-yl)-2,2′-dimethyl-[1,1′-biphenyl]-3-yl)benzo[d]oxazol-5-yl)methyl)-L-proline] | 8.30 to 10.00
CCCNCCCN(C)Cc1cc2nc(-c3cccc(-c4cccc(-c5nc6cc(CN7CCC[C@H]7C(=O)O)c(OC(F)F)cc6o5)c4C)c3C)oc2cc1OC(F)F [Example 53, ((6-(difluoromethoxy)-2-(3′-(6-(difluoromethoxy)-5-((methyl(3-(propylamino)propyl)amino)methyl)benzo [d]oxazol-2-yl)-2,2′-dimethyl-[1,1′-biphenyl]-3-yl)benzo[d]oxazol-5-yl)methyl)-L-proline] | 8.30 to 10.00
Cc1c(-c2nc3cc(CN4CCC4C)c(OC(F)F)cc3o2)cccc1-c1cccc(-c2nc3cc(CN4CCC[C@H]4C(=O)O)c(OC(F)F)cc3o2)c1C (stereo partly drawn) [Example 60, ((6-(difluoromethoxy)-2-(3′-(6-(difluoromethoxy)-5-((2-methylazetidin-1-yl)methyl)benzo[d]oxazol-2-yl)-2,2′-dimethyl-[1,1′-biphenyl]-3-yl)benzo[d]oxazol-5-yl)methyl)-L-proline] | 8.30 to 10.00
